Patent US20080152644A1, “Genes Involved in Neurodegenerative Conditions” (priority 2005, published 2008)

Tests used:
Assay type in all cases: in vivo, Drosophila
A-beta42 = assay: Sandwich ELISA of A-beta42 extracted from heads of transgenic flies fed RAD001; conditions: FIG. 8
Experimental: Antibodies: Mouse monoclonal antibody directed to the NH2 terminus of the A-beta peptide was used as the capture antibody (Biosource Cat#44-352-100). The antibody was diluted in 1×PBS 1:2900 (3.5 μl/10 ml) and applied to Maxisorb Plates (Nunc Cat#442404) and 100 ul/96 well or 50 μl/384 well by incubating overnight at 4C. Polyclonal detection antibodies were obtained from Biosource (anti-hA-beta40 Cat#44-348 and anti-hA-beta42 Cat#44-344) and diluted 1/2000 in 1% BSA/PBS […]. The tertiary antibody (Santa Cruz Cat# SC2313) was a horseradish peroxidase labeled anti-rabbit IgG (Diluted 1/5000 in 1% BSA/PBS).
Preparation of the A-beta standards: 2.31 g of sodium bicarbonate was dissolved in 500 mL of distilled water and the pH was adjusted to 9.0 with 2N sodium hydroxide. […]
Indirect Two Sandwich ELISA: After the overnight incubation with capture antibody the plates were washed twice on a microplate washer (Bioteck Instruments, Inc) in 1×PBS/0.05% Tween 20/1 mM EDTA). […] The plates were read on a microplate reader at […] (Molecular Devices, Inc.) within one hour.
The amount of A-beta42 from the heads of aged flies expressing A-beta42 was measured to see whether inactivation or reduced activation of Tor function affects the amount of A-beta42, such that it would correlate with the amelioration of A-beta42 induced toxicity. […]

[1] = tested on: transgenic flies expressing A-beta42; assay: Lifespan of transgenic flies expressing A-beta42 fed RAD001; conditions: fed every three days with 10, 20, 30 and 60 uM RAD001; effect seen even at the lowest concentration; FIG. 7
Experimental: Flies were maintained in corn meal based standard fly food (Ashburner, 1989). Parental crosses were set up at 25° C. and F1 progeny was collected and raised at 29° C. (FIG. 1). Flies are crossed and maintained at 25° C. according to conventional methods except that all progeny are kept at 29° C. for maximal expression of phenotypes. In the binary Gal4 expression system, this temperature maximizes activity of the Gal4 protein. In the case of ElavGal4C^155/UAS-A-beta42, it is observed that the phenotype is stronger at 29° C., so these flies are kept at this temperature as well.
For 2nd and 3rd chromosome P-element strains, crosses were set using male flies (about 10) from the P-element strain and virgin females (about 10) from the A-beta42 over-expressing strain (ElavGal4C^155/UAS-A-beta42). For X-chromosome P strains, about 10 virgin females were collected from individual P strains and mated with 10 males from the A-beta over-expressing strain. […] 10 vials with 20 progeny from each cross were kept at 29° C. and scored for viability and behavior phenotypes as well as for general morphological changes. For scoring, live flies were transferred to fresh vials and the dead flies were counted every 2-3 days. […]
If successful, this treatment would provide the same beneficiary effect on A-beta42 induced toxicity found through genetic modification. […] Lifespan was scored until all the RAD001 fed flies died. […]

[2] = tested on: transgenic flies expressing A-beta42; assay: Climbing assay (locomotor activity) of RAD001 fed flies expressing A-beta42; conditions: RAD001 fed flies at 21 day, compared to placebo fed flies; data not shown
Text: For the locomotion assay, 20 flies of each experimental genotype were scored at 3, 10 and 15 days of age. Flies were transferred to fresh vials, tapped down and recorded for a few minutes until their climbing came to an equilibrium.
In order to analyze locomotion activity, we used a “climbing assay” (Le Bourg E, Lints F A. (1992). Hypergravity and aging in Drosophila melanogaster. 4. Climbing activity. Gerontology. 38:59-64), which measures the negative geotropic response that flies naturally display. Groups of flies at different stages of adult life (3, 10, 15 days) from experimental and control groups were assayed. […] Three different UAS-A-beta42 strains were used, expressing different amounts of A-beta42 peptide (A-beta42^H29.3, A-beta42^HJ2.12, A-beta42^HJ2.19). Strains A-beta42^HJ2.12 and A-beta42^HJ2.19 express higher levels of the peptide than strain A-beta42^H29.3.
If successful, this treatment would provide the same beneficiary effect on A-beta42 induced toxicity found through genetic modification. Flies expressing A-beta42 were fed every three days with 10 uM, 20 uM, 30 uM and 60 uM (where uM=10^−6 M) concentration of RAD001. Lifespan was scored until all the RAD001 fed flies died. The climbing assay was performed on RAD001 fed flies at 21 day, and compared to placebo fed flies.

CO[C@H]1C[C@@H]2CC[C@@H](C)[C@@](O)(O2)C(=O)C(=O)N2CCCC[C@H]2C(=O)O[C@H]([C@H](C)C[C@@H]2CC[C@@H](OCCO)[C@H](OC)C2)CC(=O)[C@H](C)/C=C(\C)[C@@H](O)[C@@H](OC)C(=O)[C@H](C)C[C@H](C)/C=C/C=C/C=C/1C [RAD001]
total A-beta42 (A-beta42; flies dosed with 60 uM RAD001, heads of 13 day old flies): pronounced decrease
reduction of the amount of soluble A-beta42 (A-beta42; heads of 13 day old flies fed 10-60 uM RAD001 every three days, normalized to total protein, vs placebo): up to 42%
lifespan of flies expressing A-beta42 [1]: partial rescue of lifespan
locomotor defect (climbing assay) [2]: partially abrogated
